Results: ChEMBL document CHEMBL3232884, “Design, synthesis, and biological evaluation of novel pyridine-bridged analogues of combretastatin-A4 as anticancer agents” (J Med Chem, 2014)
pIC50: −log10 of the molar value. Calls of active or inactive are those of the source. The rule behind the calls is not given here.

Experiments:
MDA-MB-231 [1] = experiment: Cytotoxicity against human MDA-MB-231 cells after 72 hrs by resazurin based fluorescence assay; type: functional, cell-based
A549 = experiment: Cytotoxicity against human A549 cells after 72 hrs by resazurin based fluorescence assay; type: functional, cell-based
HeLa [2] = experiment: Cytotoxicity against human HeLa cells after 72 hrs by resazurin based fluorescence assay; type: functional, cell-based
Chorioallantoic membrane = experiment: Antiangiogenic activity in chicken embryo chorioallantoic membrane model assessed as inhibition of bFGF/VEGF-induced new vessel growth; type: functional, tissue-based; conditions: Gallus gallus
Tubulin (Bos taurus) [3] = target: T1, Tubulin (Bos taurus) (UniProt Q6B856+Q862L2+Q862F3); experiment: Induction of bovine brain tubulin polymerization at 1 uM after 60 mins by spectrophotometric analysis
HeLa [4] = experiment: Antimicrotubule activity in human HeLa cells assessed as reduction of interphase microtubule network at 1 uM after 24 hrs by indirect immunofluorescence technique; type: functional, cell-based
MDA-MB-231 [5] = experiment: Antimicrotubule activity in human MDA-MB-231 cells assessed as reduction of interphase microtubule network at 1 uM after 24 hrs by indirect immunofluorescence technique; type: functional, cell-based
Tubulin (Bos taurus) [6] = target: T1, Tubulin (Bos taurus); experiment: Inhibition of bovine brain tubulin polymerization at 1 uM after 60 mins by spectrophotometric analysis
Tubulin (Bos taurus) [7] = target: T1, Tubulin (Bos taurus); experiment: Inhibition of bovine brain tubulin polymerization at 10 uM after 60 mins by spectrophotometric analysis
[8] = Plasma concentration in C57BL/6 mouse at 5 mg/kg, po after 1 hr; type: ADME, organism-based; design: dose 5 mg/kg, route oral
Tubulin (Homo sapiens) = Tubulin (Homo sapiens) (UniProt P68371+Q9H4B7+P0DPH7+P68366+Q13509+Q71U36+P04350+Q3ZCM7+P07437+P68363+Q9BQE3+Q6PEY2+Q13885+Q9BVA1+Q9BUF5); experiment: Displacement of colchicine from tubulin (unknown origin) at 0.1 to 125 uM after 1 hr by HPLC-MS/MS analysis; type: protein-complex assay
HeLa [9] = experiment: Cell cycle arrest in human HeLa cells assessed as accumulation at G0/G1 phase at 1 uM after 24 hrs using propidium iodide staining by flow cytometry (reference value: 61.60%); type: functional
[10] = Plasma concentration in C57BL/6 mouse at 5 mg/kg, po after 3 hrs; type: ADME, organism-based; design: dose 5 mg/kg, route oral

| SMILES | pIC50 (MDA-MB-231 [1]; Homo sapiens, MDA-MB-231, 72 h) | pIC50 (A549; Homo sapiens, A549, 72 h) | pIC50 (HeLa [2]; Homo sapiens, HeLa, 72 h) | other results |
| --- | --- | --- | --- | --- |
| COc1ccc(-c2cccc(-c3cc(OC)c(OC)c(OC)c3)n2)cc1 | < 4.60 | < 4.30 | < 4.30 | – |
| COc1cc(-c2ccnc(-c3cc(OC)c(OC)c(OC)c3)c2)cc(OC)c1OC | 5.58 | 5.10 | 6.10 | – |
| COc1ccc(-c2ccc(-c3ccc(OC)cc3OC)nc2)c(OC)c1 | < 4.00 | < 4.00 | < 4.30 | – |
| COc1cc(-c2cccc(-c3ccc(O)cc3)n2)cc(OC)c1OC | 5.00 | < 4.60 | 5.10 | – |
| COc1ccc(-c2cccc(Br)n2)c(OC)c1 | < 4.00 | < 4.30 | < 4.30 | – |
| COc1ccc(-c2cccc(-c3ccc(OC)c(O)c3)n2)c(OC)c1 [listing 1 of 3 here] | – | – | – | pIC50 (MDA-MB-231 [1]; mda-mb-231): 8.27; pIC50 (A549; a549): 7.38; pIC50 (HeLa [2]; hela): 8.59 |
| COc1ccc(-c2cccc(-c3ccc(OC)cc3OC)n2)cc1 | 8.51 | 7.05 | 8.42 | growth inhibition (GI) (Chorioallantoic membrane): Active; Activity (Tubulin (Bos taurus) [3]): Active; Activity (HeLa [4]): Active; Activity (MDA-MB-231 [5]): Active; inhibition (Tubulin (Bos taurus) [6]): inactive; inhibition (Tubulin (Bos taurus) [7]): inactive |
| COc1cc(-c2ccc(Br)cn2)cc(OC)c1OC | 4.92 | < 4.60 | 4.85 | – |
| COc1cc(OC)cc(-c2cccc(-c3ccc(OC)cc3OC)n2)c1 | < 4.60 | < 4.60 | < 4.30 | – |
| COc1ccc(-c2cccc(-c3ccc(OC)cc3)n2)cc1 | 5.05 | < 4.00 | 5.70 | – |
| COc1ccc(-c2cccc(-c3ccc(OC)c(O)c3)n2)c(OC)c1 [listing 2 of 3 here] | 8.34 | 7.36 | 8.85 | concentration at 1 h [8]: 9.2 ng/mL |
| COc1ccc(-c2cccc(-c3ccc(OC)cc3OC)n2)c(OC)c1 | 7.12 | 7.10 | 7.96 | – |
| COc1ccc(-c2cccc(-c3cccc(OC)c3OC)n2)c(OC)c1 | < 4.30 | < 4.30 | < 4.30 | – |
| COc1ccc(-c2cccc(-c3c(OC)cccc3OC)n2)c(OC)c1 | < 4.00 | < 4.00 | < 4.30 | – |
| COc1ccc(-c2cccc(-c3ccc(OC)c(O)c3)n2)c(OC)c1 [listing 3 of 3 here] | – | – | – | growth inhibition (GI) (Chorioallantoic membrane): Active; inhibition (Tubulin (Homo sapiens)): Active; inhibition (Tubulin (Bos taurus) [6]): inactive; inhibition (Tubulin (Bos taurus) [7]): 57% |
| COc1cc(-c2cccc(-c3cc(OC)c(OC)c(OC)c3)n2)cc(OC)c1OC | 4.96 | < 4.30 | 6.00 | – |
| COc1ccc(-c2cccc(Br)n2)cc1OC | < 4.60 | < 4.60 | < 4.30 | – |

| SMILES | pIC50 (MDA-MB-231 [1]; Homo sapiens, MDA-MB-231, 72 h) | pIC50 (A549; Homo sapiens, A549, 72 h) | pIC50 (HeLa [2]; Homo sapiens, HeLa, 72 h) | other results |
| --- | --- | --- | --- | --- |
| COc1cc(-c2ccc(-c3cc(OC)c(OC)c(OC)c3)nc2)cc(OC)c1OC | 4.96 | < 4.00 | 5.57 | – |
| COc1ccc(-c2ccc(-c3cc(OC)c(OC)c(OC)c3)nc2)cc1OC | < 4.30 | < 4.30 | < 4.60 | – |
| COc1ccc(/C=C\c2cc(OC)c(OC)c(OC)c2)cc1O [COMBRETASTATIN A4] | 8.55 | 8.42 | 9.05 | growth inhibition (GI) (Chorioallantoic membrane): Active; Activity (HeLa [9]): 37%; Activity (HeLa [4]): Active; concentration at 1 h [8]: 2.3 ng/mL; Activity (MDA-MB-231 [5]): Active; inhibition (Tubulin (Bos taurus) [6]): 35%; inhibition (Tubulin (Bos taurus) [7]): Active; concentration at 3 h [10]: 2.1 ng/mL |
| COc1ccc(-c2cccc(-c3ccc(O)cc3)n2)c(OC)c1 | 4.76 | 5.37 | < 4.00 | – |
| COc1ccc(-c2cccc(-c3ccc(O)cc3)n2)cc1OC | < 4.30 | < 4.00 | 6.07 | – |
| COc1ccc(-c2cccc(-c3ccc(OC)c(OC)c3)n2)cc1OC | < 4.30 | < 4.30 | < 4.60 | – |
| COc1ccc(-c2cccc(-c3ccc(OC)c(OC)c3)n2)cc1 | < 4.60 | < 4.60 | < 4.60 | – |
| COc1ccc(-c2cccc(-c3cc(OC)c(OC)c(OC)c3)n2)cc1OC | 5.60 | < 4.30 | 7.59 | – |
| COc1cc(-c2cccc(Br)n2)cc(OC)c1OC | 5.22 | 5.05 | 4.92 | – |
| COc1cccc(-c2cccc(-c3ccc(OC)cc3OC)n2)c1 | 5.04 | 6.25 | 7.17 | – |
| COc1ccc(-c2cccc(-c3ccc(O)cc3)n2)cc1 | < 4.60 | < 4.60 | < 4.30 | – |
| COc1ccc(-c2cccc(-c3c(OC)cc(OC)cc3OC)n2)c(OC)c1 | < 4.30 | < 4.30 | < 4.60 | – |
| COc1ccc(-c2ccnc(-c3ccc(OC)cc3OC)c2)c(OC)c1 | < 4.30 | < 4.30 | < 4.60 | – |
| COc1ccc(-c2cccc(-c3ccc(OC)c(OC)c3)n2)c(OC)c1 | 4.89 | < 4.60 | < 4.30 | – |
| COc1ccc(-c2cccc(-c3ccccc3OC)n2)c(OC)c1 | < 4.60 | < 4.30 | < 4.60 | – |
| COc1ccc(-c2cccc(Br)n2)cc1 | 5.00 | 5.70 | 5.70 | – |
